Data published in patent publication US12060385B2, “Compounds for RNA capping and uses thereof” (GUANGZHOU HENOVCOM BIOSCIENCE CO., LTD., priority 2022, dated 2024).

Experiments:
Assay type in all cases: biochemical
T7 RNA Polymerase = T7 RNA Polymerase (Escherichia phage T7, UniProt P00573); conditions: 20 μL transcription system, Cap1 Analog 4 mM, 37° C. 2 to 3 hours
Procedure: • 1) A plasmid was linearized and the DNA template was purified. • 2) mRNA was synthesized in vitro with 51 types of capping structures of the present disclosure, or without any cap analogues. CleanCap®AG (3′OMe) (Trilink, N-7413) was applied as positive control group, uncapped mRNA was negative control group, and DNAase/RNase-Free water was a blank control group.
The system was incubated for 2 to 3 hours at 37° C. and digested by TURBO DNase for 15 min LiCl was used to precipitate mRNA for at least 30 min, or overnight, mRNA precipitates were then washed with 75% ethanol. After ethanol was quickly volatilized, mRNA was re-solubilized with RNase-Free water. • 3) The transcribed products were purified and the transcription yields were calculated.

mRNA = test: Capping efficiency of mRNA with different cap analogs by LC-MS; conditions: LC-MS after RNase H cleavage
Procedure: In a PCR machine, the annealing was performed using the following gradients: • 95° C. for 5 min; 65° C. for 2 min; 55° C. for 2 min; 40° C. for 2 min; 22° C. for 2 min • 5) Pre-treatment of magnetic beads were bound with probes.
100 μL of magnetic beads were placed on a magnetic rack and the preservation solution was removed. 100 μL of 1*BW solution was added, mixed well, and placed on the magnetic rack, and the supernatant was then removed. The washing step was repeated three times. 100 μL of wash A buffer was added, mixed well, and placed on the magnetic rack, and the supernatant was then removed. The washing step was repeated three times. 100 μL of wash B buffer was added, mixed well, and placed on the magnetic rack, and the supernatant was then removed. The washing step was repeated three times. After 120 μL of sample was added, the sample and the magnetic beads solution were incubated for 30 min at room temperature, and they were gently mixed well while incubation. • 6) mRNA was spliced to obtain 5′ end mRNA single stranded sequence and binding with the probe.
20 μL of RNase H (5 U/mL) was added, incubated for 3 hours at 37° C., mixed once every half an hour. 100 μL of 1*BW solution was added, mixed well, and placed on the magnetic rack, and then the supernatant was removed. The washing step was repeated three times. Subsequently, 100 μL of deionized aqueous solution was added, mixed well, and placed on the magnetic rack, and the supernatant was then removed. The washing step was repeated three times. 100 μL of 75% methanol at 80° C. was added, and the mixture was incubated at 80° C. on a heater plate for 3 min, and placed on the magnetic rack, and the supernatant was then pipetted. The sample was dried using an evaporative centrifuge at room temperature for 45 min to 10 μL, and then resuspended in 50 μL of 100 μM EDTA solution in 1% MeOH for LC-MS analysis.
The capping efficiencies of mRNA with different cap analogs were determined by LC-MS, and some compounds of the results were shown in Table 4.

mRNA Decapping Enzyme = test: Stability of the capped mRNA against the mRNA decapping enzymes
Procedure: • 1) The capped mRNAs were heated at 65° C. for 10 min and their secondary structures were unfolded. • 2) The concentration of mRNA Deacpping Enzyme was diluted from the original concentration (100 U/uL) to 50 U/uL, 5 U/uL, 0.5 U/uL in a 10-fold gradient dilution ratio. • 3) The capped mRNAs were added to the reaction, and the amount of enzyme in the reaction was 50 U, 5 U, 0.5 U, 0 U, respectively. The mixture was mixed with a pipette, and was incubated at 37° C. for 1 hour.
• 4) The RNA was purified using a LiCl Precipitation method, and then diluted to 500 ng/uL*20 uL for subsequent cell transfection. • 5) The cells were transfected with mRNA, and luciferase expression was detected in the same method as Experiment 2.
In FIG. 1, the luminescence unit of luciferase expressed by mRNA without decapping enzyme treatment (0 U) was 100%, and the percentage of the luminescence unit of luciferase expressed by capped mRNA treated with different concentrations of […] to the luminescence unit of luciferase expressed by capped mRNA without decapping enzyme treatment was calculated.

Sequence of T7 RNA Polymerase (P00573 whole entry): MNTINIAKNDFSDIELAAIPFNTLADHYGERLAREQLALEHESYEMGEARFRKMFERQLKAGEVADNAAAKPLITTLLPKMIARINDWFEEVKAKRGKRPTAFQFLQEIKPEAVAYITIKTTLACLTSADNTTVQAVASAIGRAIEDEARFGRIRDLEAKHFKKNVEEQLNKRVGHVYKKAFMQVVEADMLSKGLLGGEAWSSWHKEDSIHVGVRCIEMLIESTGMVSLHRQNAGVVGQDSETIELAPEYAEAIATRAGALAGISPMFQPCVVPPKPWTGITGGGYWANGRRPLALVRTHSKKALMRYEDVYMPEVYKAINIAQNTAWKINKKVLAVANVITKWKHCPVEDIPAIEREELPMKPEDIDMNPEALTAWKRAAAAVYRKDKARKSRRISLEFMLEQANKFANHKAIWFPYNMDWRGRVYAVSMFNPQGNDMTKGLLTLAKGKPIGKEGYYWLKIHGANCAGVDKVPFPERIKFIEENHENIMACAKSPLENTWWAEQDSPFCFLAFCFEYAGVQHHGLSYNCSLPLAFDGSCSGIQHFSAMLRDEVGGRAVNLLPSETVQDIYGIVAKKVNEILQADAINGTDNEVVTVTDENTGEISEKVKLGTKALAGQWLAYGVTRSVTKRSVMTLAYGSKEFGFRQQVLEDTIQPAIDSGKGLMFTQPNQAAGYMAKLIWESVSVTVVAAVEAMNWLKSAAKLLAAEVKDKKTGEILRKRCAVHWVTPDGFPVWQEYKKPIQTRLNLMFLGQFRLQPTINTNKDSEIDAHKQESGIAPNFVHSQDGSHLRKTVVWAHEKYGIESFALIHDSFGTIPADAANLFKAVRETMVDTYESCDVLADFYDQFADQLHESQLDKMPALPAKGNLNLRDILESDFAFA

Compound	Final product mass obtained from the 20 μL of mRNA transcription system (T7 RNA Polymerase)	Capping efficiency (mRNA)	Stability of capped mRNA against decapping enzyme (FIG. 1) (mRNA Decapping Enzyme; at low concentration of decapping enzyme)	Stability of capped mRNA against decapping enzyme (FIG. 1) (mRNA Decapping Enzyme; when the concentration of decapping enzyme was higher)
CCOC[C@H]1[C@@H](O)[C@H](n2c[n+](C)c3c(=O)[nH]c(N)nc32)O[C@@H]1COP(=O)(O)OP(=O)(O)OP(=O)(O)OC[C@H]1O[C@@H](n2cnc3c(N)ncnc32)[C@H](OC)[C@@H]1OP(=O)(O)OC[C@H]1O[C@@H](n2cnc3c(=O)[nH]c(N)nc32)[C@H](O)[C@@H]1O [Compound 139]	116 µg	A (100% > A ≥ 95%)	–	–
COCCOC[C@H]1[C@@H](O)[C@H](n2c[n+](C)c3c(=O)[nH]c(N)nc32)O[C@@H]1COP(=O)(O)OP(=O)(O)OP(=O)(O)OC[C@H]1O[C@@H](n2cnc3c(N)ncnc32)[C@H](OC)[C@@H]1OP(=O)(O)OC[C@H]1O[C@@H](n2cnc3c(=O)[nH]c(N)nc32)[C@H](O)[C@@H]1O [Compound 141]	84 µg	A (100% > A ≥ 95%)	–	–
COC[C@H]1[C@@H](O)[C@H](n2c[n+](C)c3c(=O)[nH]c(N)nc32)O[C@@H]1COP(=O)(O)OP(=O)(O)CP(=O)(O)OC[C@H]1O[C@@H](n2cnc3c(N)ncnc32)[C@H](OC)[C@@H]1OP(=O)(O)OC[C@H]1O[C@@H](n2cnc3c(=O)[nH]c(N)nc32)[C@H](O)[C@@H]1O [Compound 173]	118 µg	A (100% > A ≥ 95%)	the same stability as that of N-7413	a better stability than that of N-7413
CNC(=O)C[C@H]1[C@@H](O)[C@H](n2c[n+](C)c3c(=O)[nH]c(N)nc32)O[C@@H]1COP(=O)(O)OP(=O)(O)OP(=O)(O)OC[C@H]1O[C@@H](n2cnc3c(N)ncnc32)[C@H](OC)[C@@H]1OP(=O)(O)OC[C@H]1O[C@@H](n2cnc3c(=O)[nH]c(N)nc32)[C@H](O)[C@@H]1O [Compound 393]	95 µg	A (100% > A ≥ 95%)	–	–
CO[C@@H]1[C@H](OP(=O)([O-])OC[C@H]2O[C@@H](n3cnc4c(=O)[nH]c(N)nc43)[C@H](O)[C@@H]2O)[C@@H](COP(=O)(O)OP(=O)(O)OP(=O)(O)OC[C@H]2O[C@@H](n3c[n+](C)c4c(=O)[nH]c(N)nc43)[C@H](O)[C@@H]2CCN2CCOCC2)O[C@H]1n1cnc2c(N)ncnc21 [Compound 633]	100 µg	B (95% > B ≥ 90%)	–	–
